We go through 14 compounds from ChEMBL document CHEMBL4000236, “Nardonaphthalenones A and B from the roots and rhizomes of Nardostachys chinensis Batal” (Bioorg Med Chem Lett, 2017).

Common to all, as to type: cell-based
The target of test [1] is Sodium-dependent serotonin transporter (Homo sapiens) (UniProt P31645). Kind of test: Modulation of human SERT expressed in HEK293 cells at 10 uM using APP+ as substrate by fluorescence assay relative to control.
The target is the same in test [2]. Kind of test: Modulation of human SERT expressed in HEK293 cells at 1 uM using APP+ as substrate by fluorescence assay relative to control.
The target is the same in test [3]. Kind of test: Modulation of human SERT expressed in HEK293 cells at 0.1 uM using APP+ as substrate by fluorescence assay relative to control.

Activity calls are given as the source filed them. No cut-off for these calls is given here.

Sequence of Sodium-dependent serotonin transporter (Homo sapiens) (P31645 whole entry, looked up): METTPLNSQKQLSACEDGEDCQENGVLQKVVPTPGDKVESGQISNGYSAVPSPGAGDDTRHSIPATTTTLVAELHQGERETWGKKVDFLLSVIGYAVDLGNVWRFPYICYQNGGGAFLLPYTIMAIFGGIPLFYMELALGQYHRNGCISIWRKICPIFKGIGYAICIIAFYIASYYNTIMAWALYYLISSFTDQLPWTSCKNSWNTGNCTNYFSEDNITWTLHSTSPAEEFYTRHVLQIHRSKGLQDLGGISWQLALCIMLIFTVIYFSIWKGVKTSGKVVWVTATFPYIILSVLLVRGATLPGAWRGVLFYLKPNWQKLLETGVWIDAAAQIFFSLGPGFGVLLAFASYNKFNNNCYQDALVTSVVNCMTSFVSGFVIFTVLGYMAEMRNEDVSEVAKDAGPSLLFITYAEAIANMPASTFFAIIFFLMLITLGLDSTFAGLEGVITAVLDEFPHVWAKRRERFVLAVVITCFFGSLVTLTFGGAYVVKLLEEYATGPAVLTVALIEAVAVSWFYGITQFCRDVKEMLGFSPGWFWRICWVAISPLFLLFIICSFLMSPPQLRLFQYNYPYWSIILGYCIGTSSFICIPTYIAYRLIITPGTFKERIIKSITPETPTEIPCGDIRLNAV

On to `COC(=O)C1=CO[C@@H](O[C@@H]2O[C@H](CO)[C@@H](O)[C@H](O)[C@H]2O)[C@H]2[C@@H](COC(C)=O)CC[C@H]12`, for which the fold change (FC) came out at 0.989 in test [1], 1.07 in test [2] and 0.965 in test [3].

For the compound `COC1=CC(C)(C)c2cc(OC)c(C)cc2C1=O`, the fold change (FC) was 0.942 in test [1], 1 in test [2] and 0.956 in test [3].

For `C[C@H]1CC[C@@H]2C(C(=O)O)=CO[C@@H](O[C@@H]3O[C@H](CO)[C@@H](O)[C@H](O)[C@H]3O)[C@H]21`, the fold change (FC) in test [1] was 1.07; in test [2] it was 1.08; in test [3] it was 1.05.

For the compound `CC(=O)/C=C/C1=C(C)CCCC1(C)C`, the fold change (FC) in test [1] came out at 1.01; in test [2] it was 1.07; in test [3], 0.989.

As for `CC(=O)CC/C=C(C)/C=C/[C@H]1C(C)=CC(=O)CC1(C)C`, the figures for the fold change (FC) in test [1], in test [2] and in test [3] were 1.1, 1.07 and 1.06, respectively.

On to `CC(C)CC(=O)O[C@@H]1OC=C(CO[C@@H]2O[C@H](CO)[C@@H](O)[C@H](O)[C@H]2O)C2C[C@H](O)[C@@H](CO)C21` (stereo not given in full), for which the fold change (FC) in test [1] was 0.933; in test [2], 0.981; in test [3] it was 0.975.

Regarding `C/C1=C\CC[C@@H](C)CCO[C@@H]2O[C@H](CO[C@@H]3OC[C@](O)(COC1=O)[C@H]3O)[C@@H](O)[C@H](O)[C@H]2O`, the fold change (FC) in test [1] came to 1.06; in test [2], 1.08; in test [3], 1.04.

On to `CC(=O)OC[C@H]1O[C@@H](OCC2=CO[C@@H](OC(=O)CC(C)C)C3C2C[C@H](O)[C@H]3CO)[C@H](O)[C@H](O)[C@@H]1O` (stereo not given in full), for which the outcome in test [1], in test [2] and in test [3] was inactive.

`CC(=O)/C=C/C1(O)C(C)(C)CCCC1(C)O` (stereo not given): the results for the fold change (FC) in test [1], in test [2] and in test [3] were 1.09, 1.07 and 0.934, respectively.

Take `CN1c2ccccc2C(NCCCCCCC(=O)O)c2ccc(Cl)cc2S1(=O)=O` (stereo not given): the fold change (FC) in test [2] was determined as 1.18.

Take `COC1=CC(C)(C)c2cc(OC)c(C)c(OC)c2C1=O`: the fold change (FC) in test [1] stood at 1.05; in test [2], 1.05; in test [3] it was 1.07.

With `CC1=CC(=O)CC(C)(C)[C@@H]1CC[C@@H](C)OC(=O)CC(C)C`, the fold change (FC) in test [1] came out at 1.07; in test [2], 1.05; in test [3], 1.03.

Turning to `COC(=O)C1=CO[C@@H](O[C@@H]2O[C@H](CO)[C@@H](O)[C@H](O)[C@H]2O)[C@H]2[C@@H](CO)CC[C@H]12`, the result in test [1], in test [2] and in test [3] was inactive.

Turning to `CC(C)CC(=O)OCC1=CO[C@@H](OC(=O)CC(C)C)C2C1CC(=O)[C@H]2C` (stereo not given in full), the result in test [1], in test [2] and in test [3] was inactive.
